Test results taken from patent publication US10894797B2, “Fused tricyclic ring derivatives as SRC homology-2 phosphatase inhibitors” (Nikang Therapuetics, Inc., priority 2018, dated 2021).

Each compound was assayed against SHP2 (Homo sapiens (Human), UniProt Q06124) (assay: SHP2 allosteric inhibition assay (DiFMUP substrate, bisphos-IRS1 peptide activation)). Conditions: 0.33 nM SHP2, 0.5 μM bisphos-IRS1 peptide, 100 uM DiFMUP, room temperature.
Assay type: biochemical
Description: At the basal state, SHP2 is auto-inhibited and access of substrates to the catalytic site is blocked by the […] interactions between the SH2 domains and the PTP domain. When bis-tyrosyl-phosphorylated peptides bind to SH2 domain of SHP2, the PTP domain becomes available for substrate recognition and reaction catalysis and SHP2 is allosterically activated. SHP2 catalytic activity can be measured using a fluorogenic artificial substrate DiFMUP.
The phosphatase reactions were carried out at room temperature in 384-well black polystyrene plates (Greiner Bio-One, Cat #784076) using assay buffers containing 60 mM HEPES, pH 7.2, 75 mM NaCl, 75 mM KCl, 1 mM EDTA, 0.05% P-20, and 5 mM DTT.
0.33 nM of SHP2 was co-incubated with of 0.5 μM of bisphos-IRS 1 peptide (sequence: H2N-LN(pY)IDLDLV(dPEG8)LST(pY)ASINFQK-amide) and various concentrations of compounds for 30-60 min at room temperature. Then the reaction was initiated by addition of the surrogate substrate DiFMUP (Invitrogen, Cat #D6567, 100 uM final).
The real-time conversion of DiFMUP to DiFMU (6,8-difluoro-7-hydroxyl-4-methyl-coumarin) was measured every 5 min for 30 min using a microplate reader (CLARIOstar, BMG Labtech) with excitation and emission wavelengths of 340 nm and 450 nm, respectively. Initial reaction rates were determined by linear fitting of the data and the inhibitor dose response curves were analyzed using normalized IC50 regression curve fitting with control-based normalization.

IC50 [nM]	Structure (SMILES)	Shp2 IC50(nM)
5.9	COCOC[C@H]1C[C@H]2COc3c(Sc4cnc(N5CCC6(CC5)CO[C@@H](C)[C@H]6N)cn4)ccnc3N2C1 [Compound 42, (3S,4S)-8-(5-(((6aS,8S)-8-((methoxymethoxy)methyl)-6a,7,8,9-tetrahydro-6H-pyrido[3,2-b]pyrrolo[1,2-d][1,4]oxazin-4-yl)thio)pyrazin-2-yl)-3-methyl-2-oxa-8-azaspiro[4.5]decan-4-amine]	–
18	C[C@@H]1OCC2(CCN(c3ncc(Sc4cc(N)nc5c4OC[C@@H]4CCCN54)nc3CO)CC2)[C@@H]1N [Compound 35, formic acid; (3-((3S,4S)-4-amino-3-methyl-2-oxa-8-azaspiro[4.5]decan-8-yl)-6-(((S)-2-amino-6a,7,8,9-tetrahydro-6H-pyrido[3,2-b]pyrrolo[1,2-d][1,4]oxazin-4-yl)thio)pyrazin-2-yl)methanol]	–
12	COCOC[C@H]1C[C@H]2COc3c(Sc4nc(CO)c(N5CCC6(CC5)CO[C@@H](C)[C@H]6N)nc4C)ccnc3N2C1 [Compound 49, (3-((3S,4S)-4-amino-3-methyl-2-oxa-8-azaspiro[4.5]decan-8-yl)-6-(((6aS,8S)-8-((methoxymethoxy)methyl)-6a,7,8,9-tetrahydro-6H-pyrido[3,2-b]pyrrolo[1,2-d][1,4]oxazin-4-yl)thio)-5-methylpyrazin-2-yl)methanol]	–
3	C[C@@H]1OCC2(CCN(c3ncc(Sc4ccnc5c4OC[C@@H]4C[C@H](OCC6CC6)CN54)nc3CO)CC2)[C@@H]1N [Compound 16, (3-((3S,4S)-4-amino-3-methyl-2-oxa-8-azaspiro[4.5]decan-8-yl)-6-(((6aS,8S)-8-(cyclopropylmethoxy)-6a,7,8,9-tetrahydro-6H-pyrido[3,2-b]pyrrolo[1,2-d][1,4]oxazin-4-yl)thio)pyrazin-2-yl)methanol]	–
2	C[C@@H]1OCC2(CCN(c3ncc(Sc4ccnc5c4OC[C@@H]4CC6(CC6)CN54)nc3CO)CC2)[C@@H]1N [Compound 17, (3-((3S,4S)-4-amino-3-methyl-2-oxa-8-azaspiro[4.5]decan-8-yl)-6-(((S)-6a′,7′-dihydro-6′H,9′H-spiro[cyclopropane-1,8′-pyrido[3,2-b]pyrrolo[1,2-d][1,4]oxazin]-4′-yl)thio)pyrazin-2-yl)methanol]	–
10	C[C@@H]1OCC2(CCN(c3ncc(Sc4ccnc5c4OC[C@@H]4C[C@H](n6cccn6)CN54)nc3CO)CC2)[C@@H]1N [Compound 24, (6-(((6aS,8S)-8-(1H-pyrazol-1-yl)-6a,7,8,9-tetrahydro-6H-pyrido[3,2-b]-pyrrolo[1,2-d][1,4]oxazin-4-yl)thio)-3-((3 S,4S)-4-amino-3-methyl-2-oxa-8-azaspiro[4.5]decan-8-yl)pyrazin-2-yl)methanol]	–
11	C[C@@H]1OCC2(CCN(c3ncc(Sc4ccnc5c4OC[C@@H]4C[C@H](C#N)CN54)nc3CO)CC2)[C@@H]1N [Compound 20, (6aS,8S)-4-((5-((3S,4S)-4-amino-3-methyl-2-oxa-8-azaspiro[4.5]decan-8-yl)-6-(hydroxymethyl)pyrazin-2-yl)thio)-6a,7,8,9-tetrahydro-6H-pyrido[3,2-b]pyrrolo[1,2-d][1,4]oxazine-8-carbonitrile]	–
4.9	COCOC[C@H]1C[C@@H]2COc3c(Sc4cnc(N5CCC6(CC5)CO[C@@H](C)[C@H]6N)c(CO)n4)ccnc3N2C1 [Compound 51, (3-((3S,4S)-4-amino-3-methyl-2-oxa-8-azaspiro[4.5]decan-8-yl)-6-(((6aR,8S)-8-((methoxymethoxy)methyl)-6a,7,8,9-tetrahydro-6H-pyrido[3,2-b]pyrrolo[1,2-d][1,4]oxazin-4-yl)thio)pyrazin-2-yl)methanol]	–
4.5	COC[C@H]1C[C@H]2COc3c(Sc4cnc(N5CCC6(CC5)CO[C@@H](C)[C@H]6N)cn4)ccnc3N2C1 [Compound 43, (3S,4S)-8-(5-(((6aS,8S)-8-(methoxymethyl)-6a,7,8,9-tetrahydro-6H-pyrido[3,2-b]pyrrolo[1,2-d][1,4]oxazin-4-yl)thio)pyrazin-2-yl)-3-methyl-2-oxa-8-azaspiro[4.5]decan-4-amine]	–
6.2	C[C@@H]1OCC2(CCN(c3ncc(Sc4ccnc5c4OC[C@@H]4C[C@H](COCC6COC6)CN54)nc3CO)CC2)[C@@H]1N [Compound 34, (3-((3S,4S)-4-amino-3-methyl-2-oxa-8-azaspiro[4.5]decan-8-yl)-6-(((6aS,8S)-8-((oxetan-3-ylmethoxy)methyl)-6a,7,8,9-tetrahydro-6H-pyrido[3,2-b]pyrrolo[1,2-d][1,4]oxazin-4-yl)thio)pyrazin-2-yl)methanol]	–
5.9	COCOC[C@H]1C[C@H]2COc3c(Sc4ncc(N5CCC6(CC5)CO[C@@H](C)[C@H]6N)nc4N)ccnc3N2C1 [Compound 44, (3S,4S)-8-(6-amino-5-(((6aS,8S)-8-((methoxymethoxy)methyl)-6a,7,8,9-tetrahydro-6H-pyrido[3,2-b]pyrrolo[1,2-d][1,4]oxazin-4-yl)thio)pyrazin-2-yl)-3-methyl-2-oxa-8-azaspiro[4.5]decan-4-amine]	–

Second part, the compound before the results:

Structure (SMILES)	IC50 [nM]	Shp2 IC50(nM)
CO[C@@H]1C[C@H]2COc3c(Sc4cnc(N5CCC6(CC5)CO[C@@H](C)[C@H]6N)c(CO)n4)ccnc3N2C1 [Compound 6, (3-((3S,4S)-4-amino-3-methyl-2-oxa-8-azaspiro[4.5]decan-8-yl)-6-(((6aS,8R)-8-methoxy-6a,7,8,9-tetrahydro-6H-pyrido[3,2-b]pyrrolo[1,2-d][1,4]oxazin-4-yl)thio)pyrazin-2-yl)methanol]	6	–
CO[C@@H]1C[C@@H]2COc3c(Sc4cnc(N5CCC6(CC5)CO[C@@H](C)[C@H]6N)c(CO)n4)ccnc3N2C1 [Compound 9, (3-((3S,4S)-4-amino-3-methyl-2-oxa-8-azaspiro[4.5]decan-8-yl)-6-(((6aR,8R)-8-methoxy-6a,7,8,9-tetrahydro-6H-pyrido[3,2-b]pyrrolo[1,2-d][1,4]oxazin-4-yl)thio)pyrazin-2-yl)methanol]	8	–
CO[C@H]1C[C@H]2COc3c(Sc4cnc(N5CCC6(CC5)CO[C@@H](C)[C@H]6N)c(CO)n4)ccnc3N2C1 [Compound 5, (3-((3S,4S)-4-amino-3-methyl-2-oxa-8-azaspiro[4.5]decan-8-yl)-6-(((6aS,8S)-8-methoxy-6a,7,8,9-tetrahydro-6H-pyrido[3,2-b]pyrrolo[1,2-d][1,4]oxazin-4-yl)thio)pyrazin-2-yl)methanol]	8	–
C[C@@H]1OCC2(CCN(c3ncc(Sc4ccnc5c4OC[C@@H]4C[C@H](O)CN54)nc3CO)CC2)[C@@H]1N [Compound 7, (6aS,8S)-4-((5-((3S,4S)-4-amino-3-methyl-2-oxa-8-azaspiro[4.5]decan-8-yl)-6-(hydroxymethyl)pyrazin-2-yl)thio)-6a,7,8,9-tetrahydro-6H-pyrido[3,2-b]pyrrolo[1,2-d][1,4]oxazin-8-ol]	6	–
COCO[C@H]1C[C@H]2COc3c(Sc4cnc(N5CCC6(CC5)CO[C@@H](C)[C@H]6N)c(CO)n4)ccnc3N2C1 [Compound 14, (3-((3S,4S)-4-amino-3-methyl-2-oxa-8-azaspiro[4.5]decan-8-yl)-6-(((6aS,8S)-8-(methoxymethoxy)-6a,7,8,9-tetrahydro-6H-pyrido[3,2-b]pyrrolo[1,2-d][1,4]oxazin-4-yl)thio)pyrazin-2-yl)methanol]	5	–
C[C@@H]1OCC2(CCN(c3ncc(Sc4ccnc5c4OC[C@H]4COCCN54)nc3CO)CC2)[C@@H]1N [Compound 26, (3-((3S,4S)-4-amino-3-methyl-2-oxa-8-azaspiro[4.5]decan-8-yl)-6-(((R)-6a,7,9,10-tetrahydro-6H-[1,4]oxazino[4,3-d]pyrido[3,2-b][1,4]oxazin-4-yl)thio)pyrazin-2-yl)methanol]	–	one of 26 and 27 is 10 and the other is 8
CO[C@H]1C[C@@H]2COc3c(Sc4cnc(N5CCC6(CC5)CO[C@@H](C)[C@H]6N)c(CO)n4)ccnc3N2C1 [Compound 10, (3-((3S,4S)-4-amino-3-methyl-2-oxa-8-azaspiro[4.5]decan-8-yl)-6-(((6aR,8S)-8-methoxy-6a,7,8,9-tetrahydro-6H-pyrido[3,2-b]pyrrolo[1,2-d][1,4]oxazin-4-yl)thio)pyrazin-2-yl)methanol]	10	–
C[C@@H]1OCC2(CCN(c3ncc(Sc4ccnc5c4OC[C@@H]4C[C@@H](F)CN54)nc3CO)CC2)[C@@H]1N [Compound 4, (3-((3S,4S)-4-amino-3-methyl-2-oxa-8-azaspiro[4.5]decan-8-yl)-6-(((6aS,8R)-8-fluoro-6a,7,8,9-tetrahydro-6H-pyrido[3,2-b]pyrrolo[1,2-d][1,4]oxazin-4-yl)thio)pyrazin-2-yl)methanol]	5	–
C[C@@H]1OCC2(CCN(c3ncc(Sc4ccnc5c4OC[C@@H]4C[C@](C)(O)CN54)nc3CO)CC2)[C@@H]1N (single isomer, unassigned) [Compound 18]	–	one of 21 and 22 is 13 and the other is 8
C[C@@H]1OCC2(CCN(c3ncc(Sc4ccnc5c4OC[C@@H]4CCCN54)nc3CO)CC2)[C@@H]1N [Compound 1, (3-((3S,4S)-4-amino-3-methyl-2-oxa-8-azaspiro[4.5]decan-8-yl)-6-(((S)-6a,7,8,9-tetrahydro-6H-pyrido[3,2-b]pyrrolo[1,2-d][1,4]oxazin-4-yl)thio)pyrazin-2-yl)methanol]	3	–
